Assay results reported in ChEMBL document CHEMBL2021804, “Synthesis and evaluation of piperidine urea derivatives as efficacious 11β-hydroxysteroid dehydrogenase type 1 inhibitors in diabetic ob/ob mice” (Bioorg Med Chem Lett, 2012).

What was measured:
[1] = biological target: 11-beta-hydroxysteroid dehydrogenase 1 (Homo sapiens, UniProt P28845); test: Inhibition of human 11beta-HSD1 expressed in HEK293 cells assessed as [3H]cortisol production after 60 mins by SPA; format: cell-based
[2] = biological target: 11-beta-hydroxysteroid dehydrogenase 1 (Mus musculus, UniProt P50172); test: Inhibition of mouse 11beta-HSD1 expressed in HEK293 cells assessed as [3H]cortisol production after 60 mins by SPA; format: cell-based
HEK293 [3] = test: Selectivity ratio of IC50 for human 11beta-HSD1 expressed in HEK293 cells to IC50 for mouse 11beta-HSD1 expressed in HEK293 cells; format: cell-based
[4] = Half life in po dosed Sprague-Dawley rat; format: ADME, organism-based; settings: in vivo
[5] = Cmax in po dosed Sprague-Dawley rat; format: ADME, organism-based; parameters: route oral; settings: in vivo
[6] = Tmax in po dosed Sprague-Dawley rat; format: ADME, organism-based; settings: in vivo
[7] = AUC (0 to t) in po dosed Sprague-Dawley rat; format: ADME, organism-based; settings: plasma
[8] = Mean residence time in po dosed Sprague-Dawley rat; format: ADME, organism-based; settings: in vivo
[9] = AUC (0 to infinity) in po dosed Sprague-Dawley rat; format: ADME, organism-based; parameters: route oral, time infinity; settings: plasma
HEK293 [10] = test: Selectivity ratio of IC50 for human 11beta-HSD2 expressed in HEK293 cells to IC50 for human 11beta-HSD1 expressed in HEK293 cells; format: cell-based
[11] = biological target: T1, 11-beta-hydroxysteroid dehydrogenase type 2 (Mus musculus, UniProt P51661); test: Inhibition of mouse 11beta-HSD2 expressed in HEK293 cells assessed as [3H]cortisol production after 60 mins by SPA; format: cell-based
T1 sequence (P51661 whole entry): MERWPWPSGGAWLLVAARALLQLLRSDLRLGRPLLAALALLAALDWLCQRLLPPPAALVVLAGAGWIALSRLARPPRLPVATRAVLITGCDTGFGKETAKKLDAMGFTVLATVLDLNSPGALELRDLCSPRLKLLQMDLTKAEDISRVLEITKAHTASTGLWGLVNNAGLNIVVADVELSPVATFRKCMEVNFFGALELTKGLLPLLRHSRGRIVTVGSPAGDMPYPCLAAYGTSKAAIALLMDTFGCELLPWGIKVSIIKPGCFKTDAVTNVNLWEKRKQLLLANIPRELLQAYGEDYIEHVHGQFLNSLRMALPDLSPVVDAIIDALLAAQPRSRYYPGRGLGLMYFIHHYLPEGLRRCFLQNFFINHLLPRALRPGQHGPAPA

Mus musculus [12] = test: Antidiabetic activity in ob/ob mouse type 2 diabetes model assessed as reduction in nonfasting blood glucose level at 50 mg/kg, ip once daily for 5 days; format: functional; parameters: scale not given: the % may be the effect or the level left; settings: route intraperitoneal
Mus musculus [13] = test: Antidiabetic activity in ob/ob mouse type 2 diabetes model assessed as reduction in blood glucose level at 50 mg/kg, ip once daily for 5 days measured on day 15; format: functional; parameters: scale not given: the % may be the effect or the level left; settings: route intraperitoneal
Mus musculus [14] = test: Antidiabetic activity in ob/ob mouse type 2 diabetes model assessed as reduction in fasting blood glucose level at 50 mg/kg, ip once daily for 5 days measured on day 15; format: functional; parameters: scale not given: the % may be the effect or the level left; settings: route intraperitoneal
Mus musculus [15] = test: Antidiabetic activity in ob/ob mouse type 2 diabetes model assessed as reduction in fasting blood glucose level at 50 mg/kg, ip once daily for 20 days; format: functional; parameters: scale not given: the % may be the effect or the level left; settings: route intraperitoneal
Mus musculus [16] = test: Antidiabetic activity in ob/ob mouse type 2 diabetes model assessed as reduction in fasting blood glucose level at 50 mg/kg, ip once daily for 5 days measured on day 10; format: functional; parameters: scale not given: the % may be the effect or the level left; settings: route intraperitoneal
Mus musculus [17] = test: Antidiabetic activity in ob/ob mouse type 2 diabetes model assessed as reduction in blood glucose level at 50 mg/kg, ip once daily for 5 days measured on day 10; format: functional; parameters: scale not given: the % may be the effect or the level left; settings: route intraperitoneal
Mus musculus [18] = test: Antidiabetic activity in ob/ob mouse type 2 diabetes model assessed as reduction in nonfasting blood glucose level at 50 mg/kg, ip once daily for 20 days; format: functional; parameters: scale not given: the % may be the effect or the level left; settings: route intraperitoneal
[19] = biological target: T2, 11-beta-hydroxysteroid dehydrogenase type 2 (Homo sapiens, UniProt P80365); test: Inhibition of human 11beta-HSD2 expressed in HEK293 cells assessed as [3H]cortisol production after 60 mins by SPA; format: cell-based
T2 sequence (P80365 whole entry): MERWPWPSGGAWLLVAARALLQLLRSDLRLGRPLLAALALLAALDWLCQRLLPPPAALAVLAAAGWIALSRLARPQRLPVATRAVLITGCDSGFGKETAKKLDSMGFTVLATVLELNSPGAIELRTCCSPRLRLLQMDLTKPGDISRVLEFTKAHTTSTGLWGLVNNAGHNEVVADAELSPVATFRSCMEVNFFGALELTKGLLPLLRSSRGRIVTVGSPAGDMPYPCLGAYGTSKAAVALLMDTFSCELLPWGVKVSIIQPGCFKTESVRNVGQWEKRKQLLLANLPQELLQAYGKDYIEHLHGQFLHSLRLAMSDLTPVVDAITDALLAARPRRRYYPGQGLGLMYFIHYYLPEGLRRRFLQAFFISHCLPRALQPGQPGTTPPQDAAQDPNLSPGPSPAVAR

[20] = AUC in Sprague-Dawley rat at 5 mg/kg, po; format: ADME, organism-based; parameters: dose 5 mg/kg, route oral; settings: plasma
Mus musculus [21] = test: Antidiabetic activity in ob/ob mouse type 2 diabetes model assessed as reduction in fasting blood glucose level at 50 mg/kg, ip once daily for 5 days measured on day 20; format: functional; parameters: scale not given: the % may be the effect or the level left; settings: route intraperitoneal
Mus musculus [22] = test: Toxicity in ob/ob mouse type 2 diabetes model assessed as effect on body weight at 50 mg/kg, ip once daily for 20 days measured every 5 days for 20 days; format: organism-based; parameters: dose 50 mg/kg, route intraperitoneal; settings: in vivo, 480 h
Mus musculus [23] = test: Toxicity in ob/ob mouse type 2 diabetes model assessed as effect on food intake at 50 mg/kg, ip once daily for 20 days measured every 4 days for 20 days; format: organism-based; parameters: dose 50 mg/kg, route intraperitoneal; settings: in vivo, 480 h
Mus musculus [24] = test: Antidiabetic activity in ob/ob mouse type 2 diabetes model assessed as reduction in blood glucose level at 50 mg/kg, ip once daily for 5 days measured on day 20; format: functional; parameters: scale not given: the % may be the effect or the level left; settings: route intraperitoneal

Chain of 11-beta-hydroxysteroid dehydrogenase 1 (Mus musculus, UniProt P50172) (P50172 whole entry): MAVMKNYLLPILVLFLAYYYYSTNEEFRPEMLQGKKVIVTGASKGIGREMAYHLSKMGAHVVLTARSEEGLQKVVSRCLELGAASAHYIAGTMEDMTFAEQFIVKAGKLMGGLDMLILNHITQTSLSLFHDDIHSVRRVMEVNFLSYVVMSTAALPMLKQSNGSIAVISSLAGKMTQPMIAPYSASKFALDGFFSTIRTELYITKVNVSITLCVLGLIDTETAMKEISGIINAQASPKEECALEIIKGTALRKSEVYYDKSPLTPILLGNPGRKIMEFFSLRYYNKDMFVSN
Chain of 11-beta-hydroxysteroid dehydrogenase 1 (Homo sapiens, UniProt P28845) (P28845 whole entry): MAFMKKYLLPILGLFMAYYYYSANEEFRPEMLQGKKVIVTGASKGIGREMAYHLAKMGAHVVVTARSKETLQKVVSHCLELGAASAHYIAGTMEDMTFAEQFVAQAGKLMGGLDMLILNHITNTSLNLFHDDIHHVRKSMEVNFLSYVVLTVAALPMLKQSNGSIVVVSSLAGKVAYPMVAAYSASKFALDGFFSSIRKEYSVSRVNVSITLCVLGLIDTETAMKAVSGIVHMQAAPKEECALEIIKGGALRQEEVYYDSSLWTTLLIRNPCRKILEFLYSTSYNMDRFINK

## CC1(C)[C@@H](O[C@H]2O[C@H](C(=O)O)[C@@H](O)[C@H](O)[C@H]2O[C@@H]2O[C@H](C(=O)O)[C@@H](O)[C@H](O)[C@H]2O)CC[C@]2(C)[C@H]3C(=O)C=C4[C@@H]5C[C@@](C)(C(=O)O)CC[C@]5(C)CC[C@@]4(C)[C@]3(C)CC[C@@H]12 [GLYCYRRHIZIN]
[1]
  EC50: 10 nM
[2]
  EC50: 8 nM

## O=C(NC1CCCCCC1)N1CCC(CN2C(=O)Nc3ccc(Cl)cc3S2(=O)=O)CC1
[1]
  EC50: 283 nM
[2]
  EC50: 17 nM
HEK293 [3]
  Ratio IC50: 3

## O=C(NC12CC3CC(CC(C3)C1)C2)c1ccc(CN2C(=O)Nc3ccc(Cl)cc3S2(=O)=O)cc1
[1]
  EC50: 47 nM
[2]
  EC50: 14 nM

## O=C(N1CCC(CN2C(=O)Nc3ccc(Cl)cc3S2(=O)=O)CC1)N(C1CCCCCC1)C1CC1
[1]
  EC50: 517 nM
[2]
  EC50: 10 nM
HEK293 [3]
  Ratio IC50: 3

## O=C(c1cccc(CN2C(=O)Nc3ccc(Cl)cc3S2(=O)=O)c1)N(C1CCCCCC1)C1CC1
[1]
  EC50: 1 nM
[4]
  half-life: 2.02 h
[5]
  Cmax: 3.86 ng/mL
[6]
  Tmax: 2.3 h
[7]
  AUC(0-t): 15.5 ng·h/mL
[8]
  MRT: 4.02 h
[2]
  EC50: 258 nM
[9]
  AUC(0-inf): 16.1 ng·h/mL

## O=C(c1ccc(CN2C(=O)Nc3ccc(Cl)cc3S2(=O)=O)cc1)N(C1CCCCC1)C1CC1
[1]
  EC50: 60 nM
[2]
  EC50: 185 nM

## CN(C(=O)c1cccc(CN2C(=O)Nc3ccc(Cl)cc3S2(=O)=O)c1)C1C2CC3CC(C2)CC1C3 (configuration not stated)
[1]
  EC50: 4 nM
[2]
  EC50: 69 nM

## CN(C(=O)N1CCC(CN2C(=O)Nc3ccc(Cl)cc3S2(=O)=O)CC1)C1CCCCCC1
HEK293 [10]
  Ratio IC50: 40
[11]
  EC50: > 100000 nM
Mus musculus [12]
  Activity: 25%
Mus musculus [13]
  Activity: 34.6%
[1]
  EC50: 21 nM
[4]
  half-life: 2.3 h
Mus musculus [14]
  Activity: 39.4%
Mus musculus [15]
  Activity: 31.4%
Mus musculus [16]
  Activity: 33.3%
[5]
  Cmax: 46.8 ng/mL
[6]
  Tmax: 2 h
Mus musculus [17]
  Activity: 27.9%
Mus musculus [18]
  Activity: 25.7%
[19]
  EC50: 860 nM
[7]
  AUC(0-t): 173 ng·h/mL
[20]
  AUC: 147 ng·h/mL
[8]
  MRT: 4.24 h
Mus musculus [21]
  Activity: 36.1%
Mus musculus [22]
  Activity: Non-toxic
Mus musculus [23]
  Activity: Non-toxic
Mus musculus [24]
  Activity: 35.6%
[2]
  EC50: 0.41 nM
HEK293 [3]
  Ratio IC50: 3
[9]
  AUC(0-inf): 209 ng·h/mL

## CN(C(=O)c1ccc(CN2C(=O)Nc3ccc(Cl)cc3S2(=O)=O)cc1)C12CC3CC(CC(C3)C1)C2
[1]
  EC50: 70 nM
[2]
  EC50: 55 nM

## O=C(NC1CCCCCC1)c1ccc(CN2C(=O)Nc3ccc(Cl)cc3S2(=O)=O)cc1
[1]
  EC50: 802 nM
[2]
  EC50: 145 nM

## O=C(N1CCC(CN2C(=O)Nc3ccc(Cl)cc3S2(=O)=O)CC1)N(C1CCCCC1)C1CC1
[11]
  EC50: > 100000 nM
[1]
  EC50: 121 nM
[19]
  EC50: 2200 nM
[2]
  EC50: 37 nM
HEK293 [3]
  Ratio IC50: 3

## O=C(c1ccc(CN2C(=O)Nc3ccc(Cl)cc3S2(=O)=O)cc1)N(C1CCCCCC1)C1CC1
[1]
  EC50: 55 nM
[2]
  EC50: 84 nM

## O=C(NC1CCCCC1)c1ccc(CN2C(=O)Nc3ccc(Cl)cc3S2(=O)=O)cc1
[1]
  EC50: 686 nM
[2]
  EC50: 529 nM

## CN(C(=O)N1CCC(CN2C(=O)Nc3ccc(Cl)cc3S2(=O)=O)CC1)C1C2CC3CC(C2)CC1C3 (configuration not stated)
[11]
  EC50: > 100000 nM
[1]
  EC50: 158 nM
[19]
  EC50: 720 nM
[2]
  EC50: 2 nM
HEK293 [3]
  Ratio IC50: 3

## CN(C(=O)c1ccc(CN2C(=O)Nc3ccc(Cl)cc3S2(=O)=O)cc1)C1CCCCCC1
[1]
  EC50: 90 nM
[2]
  EC50: 210 nM

## O=C(NC1CCCCCCC1)c1ccc(CN2C(=O)Nc3ccc(Cl)cc3S2(=O)=O)cc1
[1]
  EC50: 443 nM
[2]
  EC50: 180 nM

## O=C(c1cccc(CN2C(=O)Nc3ccc(Cl)cc3S2(=O)=O)c1)N(C1CCCCC1)C1CC1
[1]
  EC50: 3 nM
[2]
  EC50: 58 nM

## CN(C(=O)c1cccc(CN2C(=O)Nc3ccc(Cl)cc3S2(=O)=O)c1)C1CCCCCC1
[1]
  EC50: 4 nM
[2]
  EC50: 401 nM
